According to PubChem BioAssay (NCI):
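These data come from cells grown in 96-well plates and exposed to compound for 48 hours at five concentrations. At the GI50, growth is halved. The concentration for full growth arrest is given as TGI.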

Tests used:
Assay in all cases: NCI tumour cell line growth inhibition, 48 h
KM20L2 colon = system: KM20L2 colon
DMS 114 small cell lung = system: DMS 114 small cell lung
SNB-78 CNS = system: SNB-78 CNS
DLD-1 colon = system: DLD-1 colon
XF 498 CNS = system: XF 498 CNS
LXFL 529 NSCLC = system: LXFL 529 NSCLC
RXF-631 renal = system: RXF-631 renal
HOP-18 NSCLC = system: HOP-18 NSCLC
MDA-N = system: MDA-N
P388/ADR leukemia = system: P388/ADR leukemia
SN12K1 renal = system: SN12K1 renal
P388 leukemia = system: P388 leukemia

| SMILES | TGI (KM20L2 colon) | TGI (DMS 114 small cell lung) | TGI (SNB-78 CNS) | TGI (DLD-1 colon) | TGI (XF 498 CNS) | TGI (LXFL 529 NSCLC) | TGI (RXF-631 renal) | TGI (HOP-18 NSCLC) | TGI (MDA-N) | further results |
| --- | --- | --- | --- | --- | --- | --- | --- | --- | --- | --- |
| Cc1c(C(Cc2ccccc2N(C)C(=O)/C=C\C(=O)O)c2c[nH]c3ccccc23)c2ccccc2n1C (centres undefined) | 32.7 µM | 27.5 µM | 53.8 µM | 35.2 µM | 36.9 µM | 26 µM | 27.9 µM | – | – | – |
| NC1=C(O)c2cccc3cccc(c23)C1=O | > 100 µM | > 100 µM | > 100 µM | > 100 µM | – | > 100 µM | > 100 µM | > 100 µM | – | – |
| O=C(O)/C=C/c1ccc(O)c(O)c1 | > 100 µM | > 100 µM | > 100 µM | > 100 µM | – | > 100 µM | > 100 µM | > 100 µM | – | – |
| Cc1cc(N(CCC#N)CCC#N)ccc1/C=C(\NC(=O)/C=C/c1ccccc1)C(=O)N=[N+]=[N-] | > 100 µM | > 100 µM | > 100 µM | > 100 µM | 69.9 µM | > 100 µM | – | – | – | – |
| CC(=O)N1C/C(=C\c2ccccc2)C(=O)/C(=C/c2ccccc2)C1 | 39.5 µM | – | 53.4 µM | 25.8 µM | 49.3 µM | 21.6 µM | – | 32.9 µM | – | – |
| COC(=O)C(=O)C(C(=O)C(=O)Nc1ccc(Cl)c(Cl)c1)c1nc2ccc(C(=O)c3ccccc3)cc2[nH]c1=O (centres undefined) | – | – | – | – | – | – | – | – | > 100 µM | – |
| O=C1C2C3CC4C5C3C1C5C1(SCCS1)C42 (centres undefined) | > 100 µM | > 100 µM | > 100 µM | > 100 µM | – | > 100 µM | – | > 100 µM | – | – |
| C/C(=N/NC(=O)c1ccccc1S(N)(=O)=O)C(CN1CCCCC1)C(C1=C(O)C2C=CC=CC2OC1=O)c1ccccc1 (centres undefined) | > 100 µM | – | > 100 µM | > 100 µM | > 100 µM | > 100 µM | > 100 µM | > 100 µM | – | – |
| Cc1c2cnccc2c(C)c2c1c1ccccc1n2CCOC(=O)c1ccccc1 | 50.5 µM | 30.6 µM | 85.4 µM | 49.3 µM | 5.64 µM | – | – | > 100 µM | > 100 µM | TGI (P388/ADR leukemia): 35.1 µM; TGI (SN12K1 renal): 26.6 µM; TGI (P388 leukemia): 41.4 µM |
| Cn1cc(C2NC(=O)c3ccccc3N2)c2ccccc21 (centres undefined) | – | – | – | – | – | – | – | – | 0.591 µM | – |
| CC(C)(CN1CCCCC1)C(=O)/C=C/c1ccccc1 | 28.1 µM | 42 µM | 80.9 µM | 54.1 µM | 29.9 µM | 34.7 µM | 59 µM | – | – | – |
| COc1nc(NC2OC(COC(C)=O)C(OC(C)=O)C(OC(C)=O)C2OC(C)=O)c(N=CC=Nc2c(NC3OC(COC(C)=O)C(OC(C)=O)C(OC(C)=O)C3OC(C)=O)nc(OC)[nH]c2=O)c(=O)[nH]1 (centres undefined) | > 100 µM | > 100 µM | – | > 100 µM | – | > 100 µM | – | > 100 µM | – | – |
| O=c1c2ccccc2nc(-c2cccc([N+](=O)[O-])c2)n1O | – | – | – | – | – | – | – | – | > 100 µM | – |
| N#CC(C(=O)CCCC(=O)Nc1ccccc1[N+](=O)[O-])c1c(Cl)cccc1Cl (centres undefined) | > 100 µM | > 100 µM | > 100 µM | > 100 µM | > 100 µM | > 100 µM | > 100 µM | > 100 µM | – | – |
| O=C(/C=C/c1ccccc1)NC1C=Nc2ccc([N+](=O)[O-])cc2NC1=O (centres undefined) | > 100 µM | > 100 µM | > 100 µM | > 100 µM | > 100 µM | > 100 µM | – | – | – | – |
| O=C(CCc1n[nH]c(=S)o1)Nc1cc(Cl)ccc1Cl | > 100 µM | – | > 100 µM | > 100 µM | – | > 100 µM | – | > 100 µM | – | – |
| CC(=O)OCC1C(=O)OCC1C(=O)N1Cc2cc3ccccc3nc2C1 (centres undefined) | 11 µM | 29.8 µM | – | 3.37 µM | 4.51 µM | 5.22 µM | – | 10.2 µM | 13.1 µM | – |
| COC(=O)C(=O)C(C#N)c1nc2ccccc2s1 (centres undefined) | > 100 µM | > 100 µM | > 100 µM | > 100 µM | > 100 µM | > 100 µM | > 100 µM | – | – | – |

| SMILES | TGI (KM20L2 colon) | TGI (DMS 114 small cell lung) | TGI (SNB-78 CNS) | TGI (DLD-1 colon) | TGI (XF 498 CNS) | TGI (LXFL 529 NSCLC) | TGI (RXF-631 renal) | TGI (HOP-18 NSCLC) | TGI (MDA-N) | further results |
| --- | --- | --- | --- | --- | --- | --- | --- | --- | --- | --- |
| O=C(Cc1ccccc1)NN1C(=O)C(Cl)C1c1ccc(Cl)cc1 (centres undefined) | > 100 µM | > 100 µM | > 100 µM | > 100 µM | > 100 µM | > 100 µM | – | > 100 µM | – | – |
| CC1(OCc2ccccc2)C(=O)N2C1NCC2(C)C (centres undefined) | > 100 µM | > 100 µM | – | > 100 µM | > 100 µM | > 100 µM | > 100 µM | – | – | – |
| O=C([CH-]C(=O)c1ccccc1)c1ccccc1.O=C([CH-]C(=O)c1ccccc1)c1ccccc1.O=C([CH-]C(=O)c1ccccc1)c1ccccc1.[Ga+3] | > 100 µM | – | – | – | – | – | – | > 100 µM | – | GI50 (KM20L2 colon): 59.2 µM; GI50 (HOP-18 NSCLC): 39.7 µM |
| CS(=O)(=O)OCCN(CCOS(C)(=O)=O)c1ccc(C=Nc2ccc(-c3csc(COc4ccccc4)n3)cc2)cc1 | 14.7 µM | 23.4 µM | 66.4 µM | 29.3 µM | 6.85 µM | 25.3 µM | – | 19.2 µM | 31 µM | – |
| COc1ccc(C(=O)C(C(=O)CCC(=O)Nc2ccc(Cl)c(Cl)c2)c2ccc(OC)cc2)cc1 (centres undefined) | > 100 µM | > 100 µM | > 100 µM | > 100 µM | > 100 µM | > 100 µM | > 100 µM | > 100 µM | – | – |
| C/C(CN1C(=O)c2ccccc2C1=O)=N\NS(=O)(=O)c1ccc2ccccc2c1 | > 100 µM | > 100 µM | > 100 µM | > 100 µM | – | > 100 µM | – | > 100 µM | – | – |
| O=P1(NCCCl)OCCCN1CCCl (centres undefined) | 434 µM | 438 µM | 451 µM | 431 µM | 436 µM | > 500 µM | – | 124 µM | > 500 µM | TGI (P388/ADR leukemia): 315 µM; TGI (SN12K1 renal): 430 µM; TGI (P388 leukemia): 293 µM |
| CC1CCCCCC(=O)c2c(O)cc(O)cc2CC(=O)O1 (centres undefined) | – | – | – | – | – | – | – | – | > 100 µM | – |
| Cc1ccc(S(=O)c2ccccc2[N+](=O)[O-])cc1 (centres undefined) | – | > 100 µM | > 100 µM | > 100 µM | – | – | > 100 µM | – | – | – |
| C[C@@H]1C(=O)CC2C(C)(C)CCC[C@]2(C)[C@@]12CC[C@]1(C=COC1)O2 (some centres undefined) | > 100 µM | > 100 µM | > 100 µM | – | – | – | – | > 100 µM | – | – |
| CN(C)CCC(N)(P(=O)([O-])[O-])P(=O)([O-])[O-].N.N.[Pt+2] | > 100 µM | – | > 100 µM | > 100 µM | – | > 100 µM | – | > 100 µM | – | GI50 (KM20L2 colon): > 100 µM; GI50 (HOP-18 NSCLC): > 100 µM; GI50 (SNB-78 CNS): > 100 µM; GI50 (DLD-1 colon): > 100 µM; GI50 (LXFL 529 NSCLC): > 100 µM |
| NC(N)NCCCc1cn2c(n1)C1CCCN1C(=O)C2Cc1ccccc1 (centres undefined) | > 100 µM | > 100 µM | > 100 µM | > 100 µM | > 100 µM | > 100 µM | > 100 µM | – | – | – |
| CN(C)CC1CC/C(=C\c2ccc(Cl)c(Cl)c2)C1=O (centres undefined) | > 50.2 µM | > 72.7 µM | > 78.8 µM | 50.1 µM | > 65.4 µM | 27 µM | – | > 100 µM | – | – |
| O=C(CCc1nnc2s/c(=C\c3ccc([N+](=O)[O-])cc3)c(=O)n12)Nc1ccc(Cl)c(Cl)c1 | > 100 µM | 33.4 µM | 52.8 µM | 46.5 µM | 45.5 µM | 26.2 µM | > 100 µM | – | – | – |
| C[N+]1([O-])C2CCC1CC(OC(=O)C(CO)c1ccccc1)C2 (centres undefined) | – | – | – | – | – | – | – | – | > 100 µM | – |
| CC(=O)C1(O)CC2(c3ccccc3)C(=O)C1(c1ccccc1)C(c1ccccc1)=C2c1ccccc1 (centres undefined) | > 100 µM | > 100 µM | > 100 µM | > 100 µM | > 100 µM | > 100 µM | > 100 µM | – | – | – |
| Cc1ccc(N)c(S)c1 | – | – | – | – | – | – | – | – | 28.2 µM | – |
| C=C(CO)C(=O)OC1CC(=C)C2CC(O)C(C)C2C2OC(=O)C(=C)C12 (centres undefined) | – | – | – | – | – | – | – | – | 38 µM | – |
